Molecules are shown by their SMILES.

The text below walks through data of article PMC4992173, “Divergent synthesis and identification of the cellular targets of deoxyelephantopins” (Nature Communications, 2016).

Data set [1] addresses T1, PPARγ (Homo sapiens, UniProt P37231).
T1 sequence (P37231 1-505): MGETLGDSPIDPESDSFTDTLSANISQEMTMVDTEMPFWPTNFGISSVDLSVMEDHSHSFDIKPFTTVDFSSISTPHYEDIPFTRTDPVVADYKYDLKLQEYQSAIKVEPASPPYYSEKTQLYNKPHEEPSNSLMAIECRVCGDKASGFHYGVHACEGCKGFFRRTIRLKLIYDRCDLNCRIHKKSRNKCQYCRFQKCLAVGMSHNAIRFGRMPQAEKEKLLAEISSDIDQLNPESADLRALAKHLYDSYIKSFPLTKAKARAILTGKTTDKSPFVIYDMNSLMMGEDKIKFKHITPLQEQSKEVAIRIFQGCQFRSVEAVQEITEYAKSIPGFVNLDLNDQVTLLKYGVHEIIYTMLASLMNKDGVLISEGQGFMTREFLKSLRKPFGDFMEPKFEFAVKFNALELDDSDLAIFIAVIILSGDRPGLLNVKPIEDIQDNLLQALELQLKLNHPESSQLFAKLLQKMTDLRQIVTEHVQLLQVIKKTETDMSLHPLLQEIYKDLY
Put plainly: Detection of a covalent adduct on human PPARγ (LC-MS/MS). It is filed as binding. Set-up: purchased Cayman Chemical. To be noted: 100 μM, 1 h, tryptic digest LC-MS/MS. The text has this: Finally, we sought to understand the molecular basis for PPARγ binding by the synthetic analogues of deoxyelephantopin through identification of the precise covalently modified amino acid site. There is literature precedent for oxidized fatty acids containing an α,β-unsaturated ketone to form a covalent bond with a cysteine in the ligand-binding site of PPARγ[53]. More recently, synthetic ligands binding reversibly to a distinct site were identified. […] Bearing in mind that the structurally simplified, and thus less prone to MS/MS fragmentation, probe 23c binds PPARγ as efficiently as 24c (Supplementary Fig. 13), we treated the recombinant nuclear receptor with the former compound, digested the protein and analysed the resulting peptides by LC–MS/MS. […]
Recombinant human PPARγ (500 ng in 9 μl PBS) was treated with 100 μM of 23c (1 μl of 10 × stock in DMSO) or DMSO for 1 h. […] Samples were resuspended in 0.1% FA in water and analysed by LC–MS/MS. The theoretical mass of the 23c adduct was calculated and LC–MS/MS was run with an inclusion list containing m/z and charge of the expected peptides. MS data were analysed in MaxQuant with 23c (+256.1099 Da) and carbamidomethylation as variable modifications on cysteine. […]

For data set [2], the system named is several human cancer cell lines. The note with it: cited from earlier work.

Consider `C#CCC[C@H](O)[C@H]1C(=C)C(=O)O[C@@H]1c1ccccc1` [23c], for which the “protein site covalently modified” value in data set [1] is reported as “Cys190”. On to `C=C(C)C(=O)O[C@H]1CC2=C[C@@H](C/C(C)=C/[C@H]3OC(=O)C(=C)[C@H]13)OC2=O` [deoxyelephantopin], for which, in data set [2], the cytotoxic doses is 0.5 to 2 µg/mL.
